The results in this text go back to PMC11172478, “1,3,5-Triazine as Branching Connector for the Construction of Novel Antimicrobial Peptide Dendrimers: Synthesis and Biological Characterization” (International Journal of Molecular Sciences, 2024).

Values after ≈ are worked out from the molar mass of the structure shown. Starred links: 1 amine or outer side, 2 acyl side, 3 side chain; linkers in the order of their positions; H or OH if unused. Positions of bridges follow the written chain, without caps; N, C: chain ends. Residues, ends and D or L forms follow the SMILES beside them. Chains are numbered I, II in the order given. X1 = O=C(c1ccc(Oc2nc(NCCN[*:2])nc(NCCN[*:3])n2)cc1)[*:1]

What all share (type): cell-based
One assay concerns MDR E. coli. The assay can be described thus: Checkerboard assay. The following applies: for interaction with ciprofloxacin: MDR E. coli; for interaction with rifampicin: strain not stated at this place, b42: results for rifampin quite similar to ciprofloxacin. As for the experimental part:
(§1) A checkerboard assay was used to determine the fractional inhibitory concentrations (FICs) of dendrimers in combination with conventional antibiotics. Briefly, each well in a 96-well plate was inoculated with 100 µL of a bacterial inoculum of 1 × 10^6 CFU/mL, and the plates were incubated at 37 °C for 24 h. The FIC was calculated after identifying the first well in each row without growth (MIC), according to the following formula: FIC of drug A (FIC A) = (MIC of drug A in combination)/(MIC of A); FIC of drug B (FIC B) = (MIC of drug B in combination)/(MIC of B). The FIC index (FICI) values were calculated by adding the FIC of drug A to the FIC of drug B [46]. The interpretation of the (FICI) was the following: FICI ≤ 0.5, synergy; 0.5 < FICI ≤ 1, additivity; 1 < FICI ≤ 2 […].

In assay [1] the test system is P. aeruginosa susceptible and resistant strains. The assay can be described thus: Checkerboard assay. The following applies: both susceptible and resistant strains. The procedure: as §1
The subject of assay [2] is E. coli susceptible strains. Description: Checkerboard assay. The procedure:
as §1

In assay [3] the test system is E. coli ATCC 25922. Description: Atomic force microscopy of treated bacteria. The settings on record: E. coli ATCC 25922, dendrimer at MIC, 4 h, 37 °C. As for the experimental part: E. coli ATCC 25922 was grown at 37 °C in Mueller Hinton cation-adjusted broth to an optical density of 0.25 at 625 nm. Dendrimers were added to a starting inoculum of 10^6 CFU/mL and incubated for 4 h at 37 °C with shaking. Untreated E. coli was included as a control. Cells in 1 mL of culture were centrifuged at 5000 rpm for 5 min and washed three times with 1 mL of sterile water. The bacterial cells were then resuspended in 100 µL of sterile water and a 10 µL drop was applied to a freshly cleaved mica surface and allowed to dry for approximately 10 min at room temperature.
The disk surfaces were analyzed by atomic force microscopy using an AFM XE-70 (Park Systems, Suwon, Korea) in non-contact mode with an ACTA 10M cantilever. […] The AFM images were processed using a scanning probe image processor XEI (Park Systems), correcting the plane of the AFM image for any coupling of the lateral plane and the z-axis caused by the instrument.

The next assay has as its system S. aureus ATCC 29213. The settings on record: ATCC 29213, 24 h. The procedure: (§2) The antimicrobial activity of the dendrimers was evaluated against E. coli ATCC 25922, P. aeruginosa ATCC 27853 and S. aureus ATCC 29213 strains. The MIC values were determined by the broth microdilution method. Briefly, the different strains were grown in Muller Hinton broth cation adjusted (MHBCA) medium overnight at 37 °C with shaking at 200 rpm. The bacterial cultures were then adjusted to OD625nm of 0.08–0.1, and 5 μL of each diluted suspension was added to 96-well plates previously filled with MHBCA and serially diluted peptides. Plates were incubated for 24 h at 37 °C. Finally, the MIC was determined macroscopically, based on the visual turbidity of the wells.

For assay [4], the system named is E. coli ATCC 25922. The settings on record: broth microdilution, MHBCA, 24 h, 37 °C, visual turbidity. As for the experimental part: as §2
Assay [5] relates to P. aeruginosa ATCC 27853. The following applies: broth microdilution, MHBCA, 24 h, 37 °C, visual turbidity. The procedure: as §2
Background: In broth dilution the organism is exposed to a series of concentrations in liquid medium.

The test system of assay [6] is P. aeruginosa ATCC 27853. The assay can be described thus: Bacterial growth curves. The following applies: P. aeruginosa ATCC 27853, TSB, MIC, ½ MIC and ¼ MIC, 24 h, 37 °C, OD 850 nm. As for the experimental part: (§3) The real-time effect of the peptide dendrimers was examined on the growth curves of E. coli ATCC 25922 and P. aeruginosa ATCC 27853. Volumes of 10 mL of TSB liquid cultures containing 1–5 × 10^5 CFU/mL in the logarithmic phase were adjusted in Falcon tubes. Peptide dendrimers were then added at MIC and sub-inhibitory concentrations (½ MIC and ¼ MIC). Incubation was performed in RTS-1C real-time reverse spin bioreactors RTS-1 (Biosan) for 24 h at 37 °C and 2000 rpm. Growth was measured noninvasively as optical density (OD 850 nm) every 15 min.

In a further assay the test system is P. aeruginosa P16. Description: microbe, parasite or virus in culture. The settings on record: P16, 24 h. As for the experimental part:
(§4) E. coli ATCC 25922, P. aeruginosa ATCC 27853, S. aureus ATCC 29213, P. aeruginosa 666 SJD (ciprofloxacin-resistant), P. aeruginosa P12, P13, P15, P16 and P17 (MDR isolates) and E. coli 7987, 5545, 8248, 13974, 7259 and 208691 (MDR isolates) from our own collection were included in the present study.
as §2

A further assay has as its system E. coli 8248. Description: microbe, parasite or virus in culture. The following applies: 8248, 24 h. As for the experimental part:
as §4, §2

Another assay relates to P. aeruginosa P12. Description: microbe, parasite or virus in culture. The settings on record: P12, 24 h. The procedure:
as §4, §2

The next assay has as its system E. coli 13974. Description: microbe, parasite or virus in culture. The settings on record: 13974, 24 h. As for the experimental part:
as §4, §2

For another assay, the system named is P. aeruginosa P13. The assay can be described thus: microbe, parasite or virus in culture. The following applies: P13, 24 h. The procedure: as §4, §2
For a further assay, the system named is E. coli 7259. Description: microbe, parasite or virus in culture. The following applies: 7259, 24 h. As for the experimental part:
as §4, §2

The subject of another assay is E. coli 7987. The assay can be described thus: microbe, parasite or virus in culture. The following applies: 7987, 24 h. As for the experimental part: as §4, §2
The next assay deals with P. aeruginosa P17. The assay can be described thus: microbe, parasite or virus in culture. The following applies: P17, 24 h. The procedure:
as §4, §2

The test system of another assay is E. coli 208691. Description: microbe, parasite or virus in culture. The settings on record: 208691, 24 h. The procedure:
as §4, §2

Another assay relates to E. coli 5545. The assay can be described thus: microbe, parasite or virus in culture. The following applies: 5545, 24 h. The procedure:
as §4, §2

A further assay concerns P. aeruginosa P15. The assay can be described thus: microbe, parasite or virus in culture. The following applies: P15, 24 h. The procedure: as §4, §2
The subject of assay [7] is E. coli ATCC 25922. The settings on record: for effect on growth curve (in words): E. coli ATCC 25922, TSB, MIC, ½ MIC and ¼ MIC, 37 °C, OD 850 nm. The procedure:
as §3

With `CC(C)C[C@H](NC(=O)[C@H](CCCCN)NC(=O)[C@H](CC(C)C)NC(=O)[C@H](CCCCN)NC(=O)[C@H](CC(C)C)Nc1nc(NCCNC(=O)[C@H](CCCCN)NC(=O)[C@H](CC(C)C)NC(=O)[C@H](CCCCN)NC(=O)[C@H](CC(C)C)NC(=O)[C@H](CCCCN)NC(=O)[C@@H](N)CC(C)C)nc(NCCNC(=O)[C@H](CCCCN)NC(=O)[C@H](CC(C)C)NC(=O)[C@H](CCCCN)NC(=O)[C@H](CC(C)C)NC(=O)[C@H](CCCCN)NC(=O)[C@@H](N)CC(C)C)n1)C(=O)N[C@@H](CCCCN)C(N)=O` [Dendrimer 2, H-[(LK)3-EDA]2-TA-(LK)3-NH2], the interaction with ciprofloxacin entry in the assay on MDR E. coli is reported as “synergistic”; in assay [1], “additive effect”; in [2], “additive effect”. In addition, the interaction with rifampicin result in the assay on MDR E. coli is “synergic”. For the same molecule, the “bacterial surface alteration by AFM (in words)” value with E. coli ATCC 25922 [3] is reported as “significant surface damages”. In addition, in the assay on S. aureus ATCC 29213, the “MIC S. aureus ATCC 29213” value was above 64 µg/mL. Besides, the “MIC E. coli ATCC 25922” value against E. coli ATCC 25922 [4] is 2 µg/mL (≈ 0.839 µM). Further, in the assay on P. aeruginosa ATCC 27853 [5], the “MIC P. aeruginosa ATCC 27853” value came to 16 µg/mL (≈ 6.71 µM). Also, the results for the “effect on growth curve (in words)” value in the assay with P. aeruginosa ATCC 27853 [6] and in the assay on E. coli ATCC 25922 [7] (24 h) were “complete growth inhibition occurred at the MIC” and “full growth inhibition only at the MIC”, respectively. Also, the MIC against P. aeruginosa P16 turned out to be 32 µg/mL (≈ 13.4 µM); against E. coli 8248, 8 µg/mL (≈ 3.36 µM); with P. aeruginosa P12 it was 32 µg/mL (≈ 13.4 µM); in the assay with E. coli 13974, 8 µg/mL (≈ 3.36 µM); with P. aeruginosa P13, 32 µg/mL (≈ 13.4 µM); against E. coli 7259, 2 µg/mL (≈ 0.839 µM). The MIC against E. coli 7987 came to 4 µg/mL (≈ 1.68 µM); against P. aeruginosa P17 it was 16 µg/mL (≈ 6.71 µM); with E. coli 208691, 8 µg/mL (≈ 3.36 µM); in the assay with E. coli 5545, 8 µg/mL (≈ 3.36 µM); against P. aeruginosa P15 it was 16 µg/mL (≈ 6.71 µM).
`CC(C)C[C@H](NC(=O)c1ccc(Oc2nc(NCCNC(=O)[C@H](CCCCN)NC(=O)[C@H](CC(C)C)NC(=O)[C@H](CCCCN)NC(=O)[C@H](CC(C)C)NC(=O)[C@H](CCCCN)NC(=O)[C@@H](N)CC(C)C)nc(NCCNC(=O)[C@H](CCCCN)NC(=O)[C@H](CC(C)C)NC(=O)[C@H](CCCCN)NC(=O)[C@H](CC(C)C)NC(=O)[C@H](CCCCN)NC(=O)[C@@H](N)CC(C)C)n2)cc1)C(=O)N[C@@H](CCCCN)C(=O)N[C@@H](CC(C)C)C(=O)N[C@@H](CCCCN)C(=O)N[C@@H](CC(C)C)C(=O)N[C@@H](CCCCN)C(N)=O` [Dendrimer 1, H-[(LK)3]2-(EDA)2-TA-PHBA-(LK)3-NH2] (I: LKLKLK-NH2 / II: H-LKLKLK / III: H-LKLKLK; linker I:N-II:C-III:C via X1): the interaction with ciprofloxacin entry with MDR E. coli is “synergistic”; in assay [1] it was “additive effect”; in [2], “additive effect”. For the same molecule, the interaction with rifampicin entry in the assay with MDR E. coli is reported as “synergic”. In addition, the “bacterial surface alteration by AFM (in words)” value with E. coli ATCC 25922 [3] is reported as “significant surface damages”. In addition, the “MIC S. aureus ATCC 29213” value against S. aureus ATCC 29213 was above 64 µg/mL. The “MIC E. coli ATCC 25922” value against E. coli ATCC 25922 [4] is 8 µg/mL (≈ 3.19 µM). For the same molecule, the “MIC P. aeruginosa ATCC 27853” value with P. aeruginosa ATCC 27853 [5] was determined as 16 µg/mL (≈ 6.39 µM). The “effect on growth curve (in words)” value with P. aeruginosa ATCC 27853 [6] is reported as “noticeable growth delay”; in the assay on E. coli ATCC 25922 [7] (24 h) it was “fully inhibited growth at the three concentrations tested”. For the same molecule, the MIC was 64 µg/mL (≈ 25.6 µM) in the assay with P. aeruginosa P16; 8 µg/mL (≈ 3.19 µM) in the assay with E. coli 8248; above 128 µg/mL in the assay with P. aeruginosa P12; 8 µg/mL (≈ 3.19 µM) in the assay on E. coli 13974; 64 µg/mL (≈ 25.6 µM) in the assay on P. aeruginosa P13; 32 µg/mL (≈ 12.8 µM) with E. coli 7259. In addition, the MIC with E. coli 7987 was 8 µg/mL (≈ 3.19 µM); with P. aeruginosa P17, 16 µg/mL (≈ 6.39 µM); against E. coli 208691, 32 µg/mL (≈ 12.8 µM); in the assay with E. coli 5545, 8 µg/mL (≈ 3.19 µM); against P. aeruginosa P15, above 128 µg/mL. The “MIC value deduced from microfermentor experiments” value in the assay with E. coli ATCC 25922 [7] (ATCC 25922, 24 h) is recorded as below 2 µg/mL. For the same molecule, the “concentration that completely inhibited detectable growth” value in the assay with E. coli ATCC 25922 [7] (E. coli ATCC 25922, growth curves, 24 h) is on record as 2 µg/mL.
